Experiments:
[1] = target: T1, Serine/threonine-protein kinase Nek1 (Homo sapiens) (UniProt Q96PY6); experiment: Inhibition of human NEK1 using myelin basic protein as substrate at 1 uM in presence of 32P-ATP by Hotspot assay relative to control; values are per cent of control
T1 sequence (whole entry): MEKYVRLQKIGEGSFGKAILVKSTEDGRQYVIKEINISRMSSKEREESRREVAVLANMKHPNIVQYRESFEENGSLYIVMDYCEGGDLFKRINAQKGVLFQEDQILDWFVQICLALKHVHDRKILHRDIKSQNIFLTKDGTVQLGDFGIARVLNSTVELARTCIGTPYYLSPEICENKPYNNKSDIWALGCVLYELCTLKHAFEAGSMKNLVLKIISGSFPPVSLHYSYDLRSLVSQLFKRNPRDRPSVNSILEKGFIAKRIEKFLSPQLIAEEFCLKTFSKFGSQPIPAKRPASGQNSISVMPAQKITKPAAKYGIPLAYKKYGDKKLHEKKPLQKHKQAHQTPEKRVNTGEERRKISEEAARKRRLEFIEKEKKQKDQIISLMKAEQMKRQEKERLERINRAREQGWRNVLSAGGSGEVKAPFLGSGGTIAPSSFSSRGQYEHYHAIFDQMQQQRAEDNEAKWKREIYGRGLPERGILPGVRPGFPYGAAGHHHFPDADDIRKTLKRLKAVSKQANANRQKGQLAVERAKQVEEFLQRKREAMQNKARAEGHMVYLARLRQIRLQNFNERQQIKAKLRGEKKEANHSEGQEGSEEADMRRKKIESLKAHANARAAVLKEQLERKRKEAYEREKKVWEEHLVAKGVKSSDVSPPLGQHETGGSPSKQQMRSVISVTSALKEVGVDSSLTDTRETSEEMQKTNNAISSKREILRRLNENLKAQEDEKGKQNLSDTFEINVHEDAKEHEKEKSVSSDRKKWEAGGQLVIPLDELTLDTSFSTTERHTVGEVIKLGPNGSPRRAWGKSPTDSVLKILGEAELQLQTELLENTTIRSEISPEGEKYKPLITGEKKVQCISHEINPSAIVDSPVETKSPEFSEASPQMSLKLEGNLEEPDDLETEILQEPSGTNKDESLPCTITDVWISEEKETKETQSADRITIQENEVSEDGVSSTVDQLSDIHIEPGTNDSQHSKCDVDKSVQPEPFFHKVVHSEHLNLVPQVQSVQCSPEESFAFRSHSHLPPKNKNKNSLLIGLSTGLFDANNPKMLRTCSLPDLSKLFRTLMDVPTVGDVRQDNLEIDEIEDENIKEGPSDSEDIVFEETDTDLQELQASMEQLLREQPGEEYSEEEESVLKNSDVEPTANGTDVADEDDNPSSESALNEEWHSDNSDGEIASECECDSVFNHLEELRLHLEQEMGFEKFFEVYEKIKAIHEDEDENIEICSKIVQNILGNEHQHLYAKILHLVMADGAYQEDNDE

[2] = target: T2, Serine/threonine-protein kinase haspin (Homo sapiens) (UniProt Q8TF76); experiment: Inhibition of human Haspin using histone H3 as substrate at 1 uM in presence of 32P-ATP by Hotspot assay relative to control; values are per cent of control
T2 sequence (whole entry): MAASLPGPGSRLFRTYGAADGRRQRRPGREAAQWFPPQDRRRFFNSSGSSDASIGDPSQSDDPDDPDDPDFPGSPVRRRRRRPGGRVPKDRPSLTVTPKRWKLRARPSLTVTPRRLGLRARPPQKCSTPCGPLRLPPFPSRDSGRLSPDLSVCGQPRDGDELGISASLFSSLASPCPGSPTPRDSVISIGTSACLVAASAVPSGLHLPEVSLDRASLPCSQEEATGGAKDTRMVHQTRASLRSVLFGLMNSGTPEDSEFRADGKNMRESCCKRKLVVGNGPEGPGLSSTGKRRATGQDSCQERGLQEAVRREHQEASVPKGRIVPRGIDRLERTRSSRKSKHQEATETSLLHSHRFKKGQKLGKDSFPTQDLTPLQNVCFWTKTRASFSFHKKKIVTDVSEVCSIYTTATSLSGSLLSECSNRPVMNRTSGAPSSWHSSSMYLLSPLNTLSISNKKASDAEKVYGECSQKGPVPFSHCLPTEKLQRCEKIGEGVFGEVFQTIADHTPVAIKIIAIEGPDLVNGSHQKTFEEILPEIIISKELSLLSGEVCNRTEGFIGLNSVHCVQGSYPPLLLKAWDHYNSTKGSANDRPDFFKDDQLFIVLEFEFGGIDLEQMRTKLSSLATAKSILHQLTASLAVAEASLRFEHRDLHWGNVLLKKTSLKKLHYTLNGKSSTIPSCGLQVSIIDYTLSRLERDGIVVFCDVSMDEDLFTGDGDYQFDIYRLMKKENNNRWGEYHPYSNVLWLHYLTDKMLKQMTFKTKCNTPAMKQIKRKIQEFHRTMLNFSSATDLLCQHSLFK

[3] = target: Serine/threonine-protein kinase Chk2 (Homo sapiens) (UniProt O96017); experiment: Inhibition of human CHK2 using KKKVSRSGLYRSPSMPENLNRPR as substrate at 1 uM in presence of 32P-ATP by Hotspot assay relative to control; values are per cent of control
[4] = target: Tyrosine-protein kinase CSK (Homo sapiens) (UniProt P41240); experiment: Inhibition of human CSK using poly[Glu:Tyr] (4:1) as substrate at 1 uM in presence of 32P-ATP by Hotspot assay relative to control; values are per cent of control
[5] = target: Tyrosine-protein kinase Fyn (Homo sapiens) (UniProt P06241); experiment: Inhibition of human FYN using poly[Glu:Tyr] (4:1) as substrate at 1 uM in presence of 32P-ATP by Hotspot assay relative to control; values are per cent of control
[6] = target: T3, Testis-specific serine/threonine-protein kinase 1 (Homo sapiens) (UniProt Q9BXA7); experiment: Residual activity of human STK22D/TSSK1 using KKKVSRSGLYRSPSMPENLNRPR as substrate at 1 uM in presence of 32P-ATP by Hotspot assay relative to control
T3 sequence (whole entry): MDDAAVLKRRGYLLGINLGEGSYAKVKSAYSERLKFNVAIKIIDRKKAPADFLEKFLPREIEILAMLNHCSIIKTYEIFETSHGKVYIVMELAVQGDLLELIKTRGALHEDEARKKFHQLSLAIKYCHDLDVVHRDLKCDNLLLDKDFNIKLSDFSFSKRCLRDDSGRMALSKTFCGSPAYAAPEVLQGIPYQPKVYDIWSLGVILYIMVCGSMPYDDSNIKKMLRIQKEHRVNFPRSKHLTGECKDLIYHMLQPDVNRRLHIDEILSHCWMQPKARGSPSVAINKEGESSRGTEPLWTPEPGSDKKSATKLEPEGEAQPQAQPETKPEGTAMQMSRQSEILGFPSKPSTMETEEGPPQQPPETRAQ

Tyrosine-protein kinase CSK (Homo sapiens), sequence (P41240 2-450 limits assumed): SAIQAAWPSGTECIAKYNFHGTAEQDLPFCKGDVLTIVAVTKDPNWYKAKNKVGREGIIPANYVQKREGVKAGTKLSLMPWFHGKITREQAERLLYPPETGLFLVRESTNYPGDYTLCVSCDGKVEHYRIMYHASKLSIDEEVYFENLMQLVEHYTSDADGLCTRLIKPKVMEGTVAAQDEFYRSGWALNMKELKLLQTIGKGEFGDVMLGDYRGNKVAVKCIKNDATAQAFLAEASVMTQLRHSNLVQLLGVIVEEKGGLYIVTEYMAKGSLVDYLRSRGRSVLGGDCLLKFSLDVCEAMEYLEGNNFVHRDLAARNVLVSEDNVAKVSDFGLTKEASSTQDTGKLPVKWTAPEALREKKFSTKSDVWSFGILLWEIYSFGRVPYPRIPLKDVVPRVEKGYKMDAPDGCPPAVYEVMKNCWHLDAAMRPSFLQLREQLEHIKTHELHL
Tyrosine-protein kinase Fyn (Homo sapiens), sequence (P06241 2-537 limits assumed): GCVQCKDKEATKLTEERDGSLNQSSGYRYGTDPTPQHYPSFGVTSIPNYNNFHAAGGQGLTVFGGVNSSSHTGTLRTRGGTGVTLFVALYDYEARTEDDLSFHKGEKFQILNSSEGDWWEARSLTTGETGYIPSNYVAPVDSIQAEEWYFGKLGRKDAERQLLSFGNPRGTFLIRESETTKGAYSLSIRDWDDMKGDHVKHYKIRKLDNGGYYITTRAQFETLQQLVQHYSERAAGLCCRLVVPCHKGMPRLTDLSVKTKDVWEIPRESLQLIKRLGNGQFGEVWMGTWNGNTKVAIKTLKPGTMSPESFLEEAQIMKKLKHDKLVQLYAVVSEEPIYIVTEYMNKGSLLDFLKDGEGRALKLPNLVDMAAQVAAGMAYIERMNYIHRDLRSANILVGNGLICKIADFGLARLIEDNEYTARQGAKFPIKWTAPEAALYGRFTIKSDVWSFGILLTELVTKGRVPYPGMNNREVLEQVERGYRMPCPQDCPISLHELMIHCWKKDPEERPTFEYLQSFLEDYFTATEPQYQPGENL
Serine/threonine-protein kinase Chk2 (Homo sapiens), sequence (O96017 whole entry): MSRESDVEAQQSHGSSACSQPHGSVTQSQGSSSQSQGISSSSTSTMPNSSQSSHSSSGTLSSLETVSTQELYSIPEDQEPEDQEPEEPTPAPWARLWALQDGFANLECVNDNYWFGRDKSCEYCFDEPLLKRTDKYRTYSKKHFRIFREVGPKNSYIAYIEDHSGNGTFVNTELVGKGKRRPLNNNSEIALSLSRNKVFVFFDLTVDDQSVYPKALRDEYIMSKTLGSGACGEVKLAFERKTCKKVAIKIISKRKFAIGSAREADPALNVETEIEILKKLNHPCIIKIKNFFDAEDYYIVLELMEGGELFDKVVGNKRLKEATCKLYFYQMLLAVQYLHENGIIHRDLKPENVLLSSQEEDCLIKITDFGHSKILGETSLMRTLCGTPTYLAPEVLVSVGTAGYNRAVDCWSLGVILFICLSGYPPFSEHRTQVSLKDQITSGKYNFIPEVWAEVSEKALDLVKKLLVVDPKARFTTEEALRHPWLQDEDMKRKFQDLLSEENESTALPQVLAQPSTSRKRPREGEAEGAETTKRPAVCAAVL

Compound | residual activity [1] | residual activity [2] | residual activity [3] | residual activity [4] | residual activity [5] | residual activity [6]
Cc1cc(-c2cnc(N)c3c(-c4ccc5scnc5c4)csc23)n(C)n1 | 97.3% | 95.5% | 97.3% | 69.5% | 5.73% | 101%
CNC(=O)c1ccc2c(c1)ncn2-c1ccc(CC(=O)OC(C)(C)C)cc1 | 96.4% | 98.1% | 94% | 78.6% | 79.4% | 89.2%
CC(C)S(=O)(=O)c1ccc2nccc(Nc3ccc4scnc4c3)c2c1 | 88.2% | 86.2% | 89.6% | 58.8% | 18% | 98.6%
